From patent US7671181B2, “Polynucleotides encoding coccidian parasite casein kinase I, a chemotherapeutic target for antiprotozoal agents” (Merck Sharp & Dohme Corp., priority 2004, dated 2010) come the findings set out here.

pIC50: −log10 of the molar value.

The target of one test is T1, TgCDPK1 (Toxoplasma gondii, UniProt Q9BJF5).
T1 construct: The TgCDPK1 open reading frame was amplified by PCR from a Toxoplasma cDNA library; made in house
In words: CDPK assay with Syntide-2, T. gondii CDPK1. Format: biochemical. To be noted: 0.2 μM hymenialdisine or 1 μM purvalanol B; CKI phosphopeptide substrate. The method, then:
Protein kinase assays—Casein kinase activity was assayed essentially as described (Donald, R. G. K. et al., 2002, supra) using 96-well phosphocellulose plates (MAPH-NOB, Millipore; Billerica, Mass.) to capture ^33P-phosphorylated peptide or casein substrates. Kinase reactions were carried out in 40 μl volumes containing 25 mM Hepes, pH 7.4, 10 mM MgCl2, 20 mM β-glycerophosphate, 1 mM DTT, 250 μM substrate, 1 mg/mL BSA, 2 μM ATP, and 0.01 μM [γ-^33P]ATP (Perkin-Elmer, 3000 Ci/mmol). The reactions were initiated by the addition of enzyme and incubated at room temperature for 60 min. Casein (5% solution), partially dephosphorylated α-casein and β-casein were obtained from Sigma.
A variety of commercially available peptide substrates were evaluated. From Calbiochem (San Diego, Calif.): CKI substrate (RRKDLHDDEEDEAMSITA; SEQ ID NO:13); CKII substrate (RRADDSDDDDD; SEQ ID NO:14); Syntide-2 substrate (PLARTLSVAGLPGKK; SEQ ID NO:15); CaM kinase II substrate (281-291) (MHKNETVECLK; SEQ ID NO:16). From Promega: CKI substrate (DDDEESITRR; SEQ ID NO:17) and kemptide (LRRASLG; SEQ ID NO:18). From New England Biolabs (Beverly, Mass.): CKI phosphopeptide substrate (KRRRALS(p)VASLPGL; SEQ ID NO:19), and CKII substrate (RRREEETEEE; SEQ ID NO:20). PKG assays were performed with kemptide as substrate and 10 μM cGMP. CDPK was assayed with Syntide-2 substrate and in the presence of 100 μM CaCl2.
Purification of recombinant TgCDPK1 and TgPKG—The TgCDPK1 open reading frame was amplified by PCR from a Toxoplasma cDNA library, using primers based on the published sequence (Kieschnick et al., 2001, supra): sense primer, […] (SEQ ID NO:44); and, antisense primer, […] (SEQ ID NO:45). A C-terminal FLAG epitope tag was appended to the TgCDPK1 open reading frame by an additional round of PCR amplification (KOD polymerase) and the resulting DNA fragment was sub-cloned into a tubulin promoter expression vector (Donald and Liberator, 2002, supra). […]

The test system of a further test is T. gondii. In words: Parasite growth inhibition, modified [3H]-uracil uptake assay in infected HFF cell monolayers. The class given is cell-based, Toxoplasma gondii. As to conditions: Toxoplasma gondii; uracil uptake assay, infected HFF cell monolayers; read-out: IC50. The source says:
Host cells and parasite cultures—RH strain or RH ΔHXGPRT strain tachyzoites of T. gondii were maintained by serial passage in confluent monolayers of human foreskin fibroblasts (“HFF”) as described (Roos, D. S. et al., 1994, Methods Cell Biol. 45:27-63). A modified [^3H]-uracil uptake assay (Pfefferkorn, E. R. and Pfefferkorn, L. C., 1977, J. Protozool. 24:449-453) adapted for use in 96-well scintillation plates (Cytostar-T, Amersham; Piscataway, N.J.) was used to measure parasite growth inhibition. Each well, previously seeded with HFF cells, was inoculated with T. gondii tachyzoites (2×10^4) in 200 μl of growth media containing 2 μCi [5,6]-^3H-uracil (Perkin-Elmer NEN; Boston, Mass.) and serially diluted compound. Following incubation at 37° C. for 36-48 hours, tritium-incorporation into host cell monolayers was directly counted in a microplate scintillation counter (MicroBeta, PerkinElmer-Wallac).
The only other CDK inhibitor with sub-μM activity against T. gondii was indirubin-3′-monoxime, which gave an IC50 value of 500 nM.

T1 sequence (Q9BJF5 entry or part of it): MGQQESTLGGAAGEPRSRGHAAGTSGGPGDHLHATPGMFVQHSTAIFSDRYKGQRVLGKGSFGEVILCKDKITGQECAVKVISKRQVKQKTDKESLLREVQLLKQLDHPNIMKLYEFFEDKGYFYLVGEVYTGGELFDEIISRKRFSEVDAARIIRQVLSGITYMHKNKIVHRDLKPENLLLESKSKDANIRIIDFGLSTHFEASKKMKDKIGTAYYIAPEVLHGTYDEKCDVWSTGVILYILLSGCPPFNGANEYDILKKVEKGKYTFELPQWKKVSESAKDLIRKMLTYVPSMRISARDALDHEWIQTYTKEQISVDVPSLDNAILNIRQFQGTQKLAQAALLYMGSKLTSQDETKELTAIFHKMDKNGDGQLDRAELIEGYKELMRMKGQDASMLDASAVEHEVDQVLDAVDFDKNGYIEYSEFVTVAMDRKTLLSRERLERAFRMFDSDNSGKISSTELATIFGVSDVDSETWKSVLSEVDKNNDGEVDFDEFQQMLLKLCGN

Consider `CC(C)[C@H](CO)Nc1nc(Nc2ccc(C(=O)O)c(Cl)c2)c2ncn(C(C)C)c2n1` [purvalanol B], for which, at TgCDPK1, the “sensitivity of phosphopeptide kinase activity of fractions 14 and 15 (TgCDPK1)” value was “partial sensitivity”. In addition, the pIC50 with T. gondii was 6.59.
